US8017364B2, “Solvent tolerant microorganisms” (Butamax(TM) Advanced Biofuels LLC, priority 2006, dated 2011)

Key:
[1] = tested on: identified tolerant strains; experiment: Expected growth on solid medium, inferred from IC50 values and correlation with 1-butanol tolerance; assay type: cell-based, Pediococcus
[2] = tested on: most microorganisms described in the art; settings: liquid medium, 37° C.; cited from earlier work
[3] = tested on: Lactococcus lactis overexpressing GroESL; settings: GroESL overexpression; equals 0.4% weight/volume (w/v); cited from earlier work
[4] = tested on: PN1042; settings: liquid medium, 37° C.
Procedure: (§1) The growth data was used to calculate the percent growth inhibition caused by 1-butanol by subtracting the percent growth ([…]; where T0OD600 is the initial optical density at the starting time and T5OD600 is the optical density after 5 h) from 100%.

[5] = tested on: PN1011; settings: liquid medium, 37° C.
Procedure: as §1

[6] = tested on: Lactobacillus paracasei overexpressing GroESL; settings: GroESL overexpression; equals 0.4% weight/volume (w/v); cited from earlier work

## CCC(C)=O [2-butanone]
[1]
  concentration in solid medium on which strains are expected to grow: 6.0 % w/v

## CCCCO [1-butanol]
[2]
  concentration at which growth is totally inhibited: less than 2.0 % w/v
[3]
  concentration at which strain was able to grow: 0.5 % volume/volume (v/v)
[4]; PN1042, 3% (w/v) 1-butanol
  growth in the presence of 1-butanol: low levels of growth
[4]; PN1042, 3.5% (w/v) 1-butanol, OD600 over 5 h
  percent growth inhibition: 100%
[5]; PN1011, 3% (w/v) 1-butanol
  growth in the presence of 1-butanol: low levels of growth
[5]; PN1011, 3.5% (w/v) 1-butanol, OD600 over 5 h
  percent growth inhibition: 100%
[6]
  concentration at which strain was able to grow: 0.5 % volume/volume (v/v)

## CC(C)CO [isobutanol]
[1]
  concentration in solid medium on which strains are expected to grow: 3.5 % w/v

## CCC(C)O (stereo not shown) [2-butanol]
[1]
  concentration in solid medium on which strains are expected to grow: 4.0 % w/v
